{"source": "patent US20190040447A1", "about": "“Assay for compounds having activity against influenza” (priority 2016, published 2019)", "target": "RNA-dependent RNA polymerase (RdRp) comprised in an influenza viral ribonucleoprotein (RNP) complex (Influenza A virus, UniProt P03428+P03431+P03433)", "experiment": "Influenza filter RNP transcription/replication assay (HTS screen using the method of the invention)", "type": "biochemical, Influenza virus (Influenza A/PR/8/34, Influenza B\\Lee\\40)", "conditions": "virus lysate containing native vRNP; which assay (transcription or replication) and which strain are not stated", "data": [{"smiles": "O=C(O)[C@H]1[C@H]2CC[C@H]([C@H]3C[C@H]32)[C@@H]1Nc1nc(-c2n[nH]c3ncc(F)cc23)ncc1F", "note": "[(−)-(1R,2S,4R,5S,6S,7S)-7-((5-fluoro-2-(5-fluoro-1H-pyrazolo[3,4-b]pyridin-3-yl)pyrimidin-4-yl)amino)tricyclo[3.2.2.02,4]nonane-6-carboxylic Acid]", "values": [{"measurement": "IC50", "result": 0.2, "unit": "nM"}]}]}
